Results published in patent US6613322B2, “Method for treating a subject suffering from conditions associated with an extracellular zinc sphingomyelinase” (The Trustees of Columbia University in the City of New York, priority 1997, dated 2003).

System: L-SMase
Experiment: SMase assay of CHO cell homogenate and 16,000-x-g pellet
Assay type: biochemical, Chinese hamster
Description: FIGS. 18A-B. Zn^2+-dependency of SMase in a sonicated cell homogenate and 16,000-x-g pellet. CHO cells were grown to 90% confluency in Ham's F-12 media containing 10% HI-FBS and PSG and then washed 3 times with PBS before incubation in serum-free medium containing 0.2% BSA for 24 h. The cells were then washed 3 times in 0.25 M sucrose and the total cell homogenate and the 16,000-x-g cellular subfraction were isolated as described in “Experimental Procedures”. Twelve micrograms of the cell homogenate (Homogenate) and 2.5 μg of the 16,000-x-g pellet (16K-xg Pellet) were assayed for SMase activity in the presence of either 5 mM EDTA (hatched bars) or 0.1 mM ZnCl2 (solid bars) for 1 h at 37° C. at pH 5.0. […]
SMase Assay—As previously described (Schissel et al., 1996), the standard 200-μl assay mixture consisted of up to 40 μl of sample (conditioned media or homogenized cells; see above) and a volume of assay buffer (0.1 M sodium acetate, pH 5.0) to bring the volume to 160 μl. […] The ceramide spots were scraped and directly counted to quantify [^3H]ceramide. Typically, the assay reactions contained approximately 20 μg of cellular homogenate protein and a volume of conditioned media derived from a quantity of cells equivalent to approximately 50 μg of cellular protein.

[Cl-].[Cl-].[Zn+2] [Zn^2+, ZnCl2]
effect of exogenous Zn2+ on SMase activity (16,000-x-g pellet (intact lysosomes), sonicated): substantially stimulated
effect of exogenous Zn2+ on SMase activity (sonicated cell homogenate): no effect
